In the METLIN SMRT retention time set (Domingo-Almenara et al. 2019):

Assay: gradient 5% acetonitrile 3 min, to 50% in 2 min, to 85% in 15 min, held 3 min, 100 µL/min
Settings: column: Zorbax Extend-C18 2.1 x 50 mm; eluents: water / acetonitrile, 0.1% formic acid
Outline: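 Using water and acetonitrile that each contained 0.1% formic acid, mixtures of ~100 pure standards were separated at 100 μL/min on a Zorbax Extend-C18 column (2.1 × 50 mm, 1.8 μm). The HPLC fed a quadrupole time-of-flight mass spectrometer working in positive and negative ionization mode, with dead and dwell volumes of 40 μL and 900 μL. Data were acquired over 3 months. Retention time was read from computationally picked adduct peaks after manual inspection of each.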

Structure (SMILES) | RP-LC retention time [s]
Cc1ccc2c(c1)N(Cc1ccc(F)cc1)N=C(C(=O)N1CCC(C)CC1)S2(=O)=O | 1060
CC(Oc1ccc(=O)n(-c2ccc(F)cc2)n1)C(=O)Nc1cccc(F)c1 (stereo not drawn) | 793
CC(C)NC(=O)c1ccc2ccnc(N3CCN(c4ccc(Cl)cc4)CC3)c2c1 | 816
O=C(NCc1cccnc1)NC1CC(=O)N(c2ccc(Cl)cc2)C1 (stereo not drawn) | 546
CCc1csc(-c2ccc(N3CCN(C(=O)c4ccc(F)cc4F)CC3)nc2)n1 | 890
c1ccc(Sc2ncccn2)nc1 | 662
CCc1ccc(S(=O)(=O)c2cnc(N3CCCC(C)C3)nc2N)cc1 (stereo not drawn) | 1150
O=C(CNC(=O)c1ccc(C(F)(F)F)cc1)Nc1nc2ccccc2[nH]1 | 688
COc1ccc(-c2csc(NC(=O)CSc3nc4c(cc3C#N)CCCC4)n2)cc1 | 1180
CC(C)CNC(=O)Cc1nnc(-c2cccc(F)c2)o1 | 744
O=C(CN1CN(c2ccccc2)c2ncccc2S1(=O)=O)Nc1ccccc1Cl | 934
COc1ccc(Cl)c(Nc2nc3ccccc3nc2NS(=O)(=O)c2cccc(NC(=O)C(C)(C)N)c2)c1 | 879
CCc1noc(NC(C)=O)c1-c1ccc(C)c(S(=O)(=O)Nc2ccc3c(c2)OCCO3)c1 | 784
CS(=O)(=O)c1ccc(-c2cccc(NC(=O)Cc3cccs3)c2)nn1 | 707
CCn1cnc(S(=O)(=O)N2CCCC(C(=O)NCc3cccc(C)c3)C2)c1 (stereo not drawn) | 747
CN1C(=O)c2cc(S(=O)(=O)Nc3ccc(F)cc3Cl)ccc2Oc2cccnc21 | 943
CC1=C(c2ccc(C)cc2)S(=O)(=O)N=C1N1CCCN(C(=O)c2ccccc2F)CC1 | 846
CCOC(=O)C1=C(CN2CCN(Cc3ccc4c(c3)OCO4)CC2)NC(=O)NC1c1ccc(C)cc1 (stereo not drawn) | 585
CCCOc1ccc(CNC(=O)C2CCCN(c3ncnc4c3oc3ccccc34)C2)cc1 (stereo not drawn) | 889
Cc1oc(-c2[nH]ncc2C(=O)N(C)C)cc1S(=O)(=O)NCc1ccc(Cl)cc1 | 725

Structure (SMILES) | RP-LC retention time [s]
CCOc1ccc(CNC(=O)C2CCCN(c3ccc(=O)n(-c4ccc(CC)cc4)n3)C2)cc1 (stereo not drawn) | 940
Cc1nc2ccccn2c(=O)c1NC(=O)Nc1cccs1 | 566
CSc1ccc(CNC(=O)c2cn3cccc(C)c3n2)cc1 | 755
Cn1nc(COc2ccccc2)c2c1CCN(C(=O)Nc1ccccc1Cl)C2 | 889
Cc1ccc(-c2cn3ccn(-c4ccc(F)cc4)c(=O)c3n2)cc1 | 827
COCCc1noc([C@@H]2CN(Cc3ccc(C(C)C)cc3)C[C@H]2CO)n1 | 663
Cc1cc(S(=O)(=O)C(CNC(=O)c2cccs2)c2ccco2)ccc1F (stereo not drawn) | 815
Cc1ccc(-n2nc(C)c3sc(N4CCCC(C(=O)Nc5cccc(Cl)c5C)C4)nc32)cc1 (stereo not drawn) | 1310
O=C(c1ccc(Cn2c(=O)c3cccn3c3cccnc32)o1)N1CCN(c2ccccn2)CC1 | 615
Cc1ccc(C)c(-c2cc3c(=O)n(Cc4noc(-c5ccc6c(c5)OCO6)n4)ccn3n2)c1 | 1120
COCC(=O)N1CCCC(c2nc(CNC(=O)C3CCC3)cs2)C1 (stereo not drawn) | 597
Cc1cc(C)cc(C(=O)N2CCCC(C(=O)NCc3ccco3)C2)c1 (stereo not drawn) | 798
COCCNc1nc(-c2ccc([N+](=O)[O-])cc2)nc2ccccc12 | 696
CCOc1ccc(S(=O)(=O)N2CCC(C(=O)N3CCc4ccccc4C3)CC2)cc1 | 985
Cc1cc(-c2nnc(-c3ccccc3)o2)c(C)n1CC(=O)NC(C)c1ccccc1 (stereo not drawn) | 921
c1cnc(-c2n[nH]c(C3CCN(Cc4ccsc4)CC3)n2)cn1 | 559
COc1cccc(NC(=O)N2CCCC2c2nc(-c3cccc(OC)c3)no2)c1 (stereo not drawn) | 947
Cc1ccc(-c2nc3ccccn3c2Nc2ccc3c(c2)OCCO3)cc1 | 690
O=C(N[C@@H]1CN(c2ncccn2)C[C@H]1CO)C1(c2ccccc2)CC1 | 654
Cc1cc(C)cc(-n2c(SCC(=O)Nc3nc(C)cs3)nc3c(c2=O)SCC3)c1 | 825

Structure (SMILES) | RP-LC retention time [s]
COc1ccc(SCC(=O)Nc2c3c(nn2C)CCC3)cc1 | 687
O=C(Cn1c(=O)oc2ccccc21)N1CCCC(COCc2ccccc2)C1 (stereo not drawn) | 897
Oc1c(Cl)cc(Cl)c2cccnc12 | 1020
Cc1ccccc1-c1cc(C(=O)N2CCC(NC(=O)C3CCC(C)CC3)CC2)[nH]n1 (stereo not drawn) | 811
CCOc1cc2c(cc1OCC)C1C(C(=O)NCc3ccc(C)o3)c3ccccc3C(=O)N1CC2 (stereo not drawn) | 894
CC(C)OCCCNC(=O)Cn1c2ccccc2c2cnn(C)c(=O)c21 | 745
C=CCN1C(=O)COc2ccc(-c3nc(NC(=O)COC)sc3C)cc21 | 836
CCOC(=O)CNC(=O)N1CCN(c2nc3ccccc3n2Cc2ccccc2)CC1 | 656
CCCNC(=O)C1CCN(c2ccc(SCC(=O)Nc3ccc(OC)c(Cl)c3)nn2)CC1 | 654
Cc1nc2ncnn2c(N2CCC(C)CC2)c1C | 1020
Cc1cccc(-c2noc(-c3nn(CC(=O)N4CCCC4)c4ccccc34)n2)c1 | 1080
CC(C)(C)c1cc(C(=O)Nc2cc(F)cc(F)c2)nc2ccnn12 | 1360
CN1C(=O)c2cc(C(=O)NCc3cccc(Cl)c3)nn2CC1(C)C(=O)NCc1ccccc1 (stereo not drawn) | 793
COc1ccccc1-c1nc(C2CC(=O)N(c3ccccc3)C2)no1 (stereo not drawn) | 894
COC(=O)c1ccc(-c2nc3cnccn3c2Nc2ccccc2C)cc1 | 906
CCOC(=O)c1cnc2nc(C)ccc2c1Nc1cc(Cl)ccc1F | 774
Cc1noc(C)c1S(=O)(=O)N1CCCC(c2nc(CNC(=O)C(C)C)cs2)C1 (stereo not drawn) | 796
Cc1sc(NC(=O)c2ccccc2)nc1-c1ccc2c(c1)N(C)C(=O)CO2 | 952
Brc1ccc(Nc2nc(-c3ccccc3)cs2)nc1 | 1210

Now from value to molecule:

RP-LC retention time [s] | Structure (SMILES)
1150 | COc1ccc(-c2nnc(-c3ccccc3Cl)o2)cc1S(=O)(=O)N1CCC(C)CC1
1040 | COCCCn1c(=O)c2ccccc2n(Cc2nc(-c3cccc(OC)c3)no2)c1=O
1030 | Cc1nc(-c2cc(S(=O)(=O)Nc3ccc(Cl)cc3F)c(C)s2)cs1
1060 | CCOC(=O)c1noc2ncnc(Nc3cc(C)ccc3OC)c12
688 | CC(C)(C)C(=O)NC1CCN(C(=O)c2ccc(F)cc2)C1 (stereo not drawn)
729 | Cc1noc(-c2nn(C)c3c2CN(C(=O)COc2ccccc2)CC3)n1
718 | CC(C)C(NC(=O)CCc1ccccc1)C(=O)Nc1nc2ccccc2[nH]1 (stereo not drawn)
840 | CC(NC(=O)c1nnc(-c2ccc(S(=O)(=O)N(C)C)cc2)o1)c1ccccc1 (stereo not drawn)
710 | COc1cc(OC)cc(C(=O)NC2CCN(c3cc(-c4ccccc4)[nH]n3)C2)c1 (stereo not drawn)
687 | CC1CN2C=NC(N3CCN(C(=O)Nc4ccc(C(F)(F)F)cc4)CC3)=CC2=N1 (stereo not drawn)
608 | O=C1NCCCCCN(C(=O)c2ccc(Cn3cncn3)o2)[C@H]2CCC[C@@H]12
946 | CCCCOc1ccc(-c2cc3c4nnc(CCC(=O)NCc5cccc(OC)c5)n4ccn3n2)cc1
576 | Cc1nn(CC(=O)NCCN2CCN(Cc3ccccc3)CC2)c(=O)c2noc(C)c12
632 | N#Cc1cccc(-c2nc(-c3ccc4c(c3)ncn4CCN3CCCCC3)no2)c1
1110 | Fc1ccccc1-c1noc(Cc2nnc(-c3cccc(Br)c3)o2)n1
672 | COCCCNCc1ccc(-c2ccccc2Cl)o1
670 | O=C(NCc1ccccc1Cl)C(=O)NCC1(CO)CC1
734 | COc1cc(OC)cc(C(=O)N2CCC3(CC2)NC(=O)c2ccc(F)cc2N3C)c1
661 | Cc1noc(/C=C\c2ccc(S(=O)(=O)N3CCN(c4ccccn4)CC3)cc2)c1NC(=O)C1CC1
770 | Cc1ccc(Cl)cc1NC(=O)Cn1nc2c3cc(Cl)ccc3ncn2c1=O
988 | Cn1c(C(=O)Nc2ccc(F)cc2Cl)cc2c(=O)oc3ccccc3c21
748 | CCNC(=O)C1CCCN(C(=O)Nc2ccc(NC(=O)Nc3ccc(C)c(C)c3)cc2)C1 (stereo not drawn)
1010 | CCCCCNC(=O)c1cnn2c(-c3ccc4c(c3)OCO4)ccnc12
776 | CNS(=O)(=O)CCCOc1cccc2c1OC(C)(C)C2
832 | Cc1cc(C)cc(C(=O)N2CCCC(C(=O)NCc3cccs3)C2)c1 (stereo not drawn)
1090 | COc1ccc(CNC(=O)CSc2cc(N3CCN(c4ccccc4OC)CC3)ncn2)cc1
651 | CC1CCCCN1CCNC(=O)c1cc(S(=O)(=O)N2CCCCC2)ccc1Cl (stereo not drawn)
677 | Cc1oc(C2CCN(C(=O)C3CCN(S(=O)(=O)N4CCOCC4)CC3)CC2)nc1C(=O)N1CCCC1
641 | CCn1c(CCNC(=O)c2ccc(F)c(F)c2)nc2cccnc21
